Where no end group is shown, it is not given here.
Test system: LRF (luteinizing hormone release factor) induced luteinizing hormone (LH) release
Assay: In vitro test for LRF antagonist activity in rat anterior pituitary cell cultures
Format: cell-based
Description: Pentapeptides of this invention were screened for LRF antagonist activity in vitro using rat anterior pituitary cell cultures as described by Vale et. al. [Endocrinology, 91, 562 (1972)]. The inhibition of LRF (luteinizing hormone release factor) induced luteinizing hormone (LH) release into the culture medium is the endpoint in this in vitro bioassay.

[1] = compound Molar Conc. 1 × 10^-7, LRF 3.5 × 10^-10, rat anterior pituitary cell cultures
[2] = compound Molar Conc. 3 × 10^-7, LRF 3.5 × 10^-10, rat anterior pituitary cell cultures
[3] = compound Molar Conc. 5 × 10^-8, LRF 3.5 × 10^-10, rat anterior pituitary cell cultures
[4] = compound Molar Conc. 6 × 10^-7, LRF 3.5 × 10^-10, rat anterior pituitary cell cultures
[5] = compound Molar Conc. 1 × 10^-6, LRF 2.5 × 10^-10, rat anterior pituitary cell cultures

LRF: luteinizing hormone releasing factor, formed in the hypothalamus; stimulates secretion of luteinizing hormone; used as the stimulus in the bioassay (QHWSYGLRPG; ends and bridges not checked; UniProt P01148 24-33, looked up) [reference compound]
LH Value (LRF alone, Molar Conc. 2.5 × 10^-10 (control of second experiment; saline control 7.70)): 36.96 ng/mL
LH Value (LRF alone, Molar Conc. 3.5 × 10^-10 (control of first experiment; saline control 6.46)): 40.46 ng/mL

N^α -t-Butoxycarbonyl-N^im -benzyl-L-histidyl-O-methyl-L-tyrosyl-O-benzyl-L-seryl-L-tryptophyl-D-alanine N-ethylamide
% LH Release Inhibition [1]: 69%
LH Value [1]: 17.2 ng/mL
% LH Release Inhibition [2]: 90%
LH Value [2]: 10.16 ng/mL
% LH Release Inhibition [3]: 56%
LH Value [3]: 21.61 ng/mL
% LH Release Inhibition [4]: 98%
LH Value [4]: 7.72 ng/mL

N^α -t-Butoxycarbonyl-N^im -benzyl-L-histidyl-O-methyl-L-tyrosyl-O-benzyl-L-seryl-L-tryptophyl-D-alanine methyl ester
% LH Release Inhibition [5]: 69%
LH Value [5]: 16.89 ng/mL
